Tests used:
[1] = target: T1, GINS1 (Homo sapiens, UniProt Q14691); test: Viral trapping in VLPs, MS analysis; assay type: binding; conditions: all proteins (incl. low confidence identifications)
T1 construct: endogenous in cells; host or cells: HEK293T

[2] = target: T2, MOXD1 (Homo sapiens, UniProt Q6UVY6); test: Viral trapping in VLPs, MS analysis; assay type: binding; conditions: all proteins (incl. low confidence identifications)
T2 construct: endogenous in cells; host or cells: HEK293T

[3] = target: T3, LAMTOR5 (Homo sapiens, UniProt O43504); test: Viral trapping in VLPs, MS analysis; assay type: binding; conditions: all proteins (incl. low confidence identifications)
T3 construct: endogenous in cells; host or cells: HEK293T

[4] = target: T4, TMED5 (Homo sapiens, UniProt Q9Y3A6); test: Viral trapping in VLPs, MS analysis; assay type: binding; conditions: all proteins (incl. low confidence identifications)
T4 construct: endogenous in cells; host or cells: HEK293T

[5] = target: T5, RAB4A (Homo sapiens, UniProt P20338); test: Viral trapping in VLPs, MS analysis; assay type: binding; conditions: all proteins (incl. low confidence identifications)
T5 construct: endogenous in cells; host or cells: HEK293T

[6] = target: T6, AKT3 (Homo sapiens, UniProt Q9Y243); test: Viral trapping in VLPs, MS analysis; assay type: binding; conditions: all proteins (incl. low confidence identifications)
T6 construct: endogenous in cells; host or cells: HEK293T
T6 sequence (Q9Y243 whole entry): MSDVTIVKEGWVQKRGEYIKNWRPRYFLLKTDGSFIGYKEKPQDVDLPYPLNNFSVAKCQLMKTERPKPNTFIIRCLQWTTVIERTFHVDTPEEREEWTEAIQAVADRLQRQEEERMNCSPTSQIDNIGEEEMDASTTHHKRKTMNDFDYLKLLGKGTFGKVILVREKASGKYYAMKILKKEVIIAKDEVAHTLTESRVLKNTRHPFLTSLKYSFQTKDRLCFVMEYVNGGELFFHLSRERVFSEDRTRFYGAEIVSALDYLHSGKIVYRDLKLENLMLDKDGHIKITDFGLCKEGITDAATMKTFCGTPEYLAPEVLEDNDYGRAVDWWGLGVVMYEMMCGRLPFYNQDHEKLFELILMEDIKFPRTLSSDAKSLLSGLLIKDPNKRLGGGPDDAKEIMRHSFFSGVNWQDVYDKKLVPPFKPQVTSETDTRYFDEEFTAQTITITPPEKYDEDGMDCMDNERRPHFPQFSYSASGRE

[7] = target: T7, SLC17A1 (Homo sapiens, UniProt Q14916); test: Viral trapping in VLPs, MS analysis; assay type: binding; conditions: all proteins (incl. low confidence identifications)
T7 construct: endogenous in cells; host or cells: HEK293T

[8] = target: T8, CTU1 (Homo sapiens, UniProt Q7Z7A3); test: Viral trapping in VLPs, MS analysis; assay type: binding
T8 construct: endogenous in cells; host or cells: HEK293T
T8 sequence (Q7Z7A3 whole entry): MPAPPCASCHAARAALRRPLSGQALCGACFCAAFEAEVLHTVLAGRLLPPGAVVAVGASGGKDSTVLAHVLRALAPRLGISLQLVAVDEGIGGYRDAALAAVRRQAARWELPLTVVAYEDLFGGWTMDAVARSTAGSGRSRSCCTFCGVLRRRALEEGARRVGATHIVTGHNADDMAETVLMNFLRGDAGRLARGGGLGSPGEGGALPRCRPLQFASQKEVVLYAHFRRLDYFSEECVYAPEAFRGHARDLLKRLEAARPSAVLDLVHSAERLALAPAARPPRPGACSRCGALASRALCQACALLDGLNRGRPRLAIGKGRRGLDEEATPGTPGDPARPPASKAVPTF

[9] = target: T9, FHL1 (Homo sapiens, UniProt Q13642); test: Viral trapping in VLPs, MS analysis; assay type: binding; conditions: all proteins (incl. low confidence identifications)
T9 construct: endogenous in cells; host or cells: HEK293T

[10] = target: T10, PRKCSH (Homo sapiens, UniProt P14314); test: Viral trapping in VLPs, MS analysis; assay type: binding; conditions: all proteins (incl. low confidence identifications)
T10 construct: endogenous in cells; host or cells: HEK293T

[11] = target: T11, GALNT1 (Homo sapiens, UniProt Q10472); test: Viral trapping in VLPs, MS analysis; assay type: binding; conditions: all proteins (incl. low confidence identifications)
T11 construct: endogenous in cells; host or cells: HEK293T

[12] = target: T12, DBI (Homo sapiens, UniProt P07108); test: Viral trapping in VLPs, MS analysis; assay type: binding; conditions: all proteins (incl. low confidence identifications)
T12 construct: endogenous in cells; host or cells: HEK293T

[13] = target: T13, LNPEP (Homo sapiens, UniProt Q9UIQ6); test: Viral trapping in VLPs, MS analysis; assay type: binding; conditions: all proteins (incl. low confidence identifications)
T13 construct: endogenous in cells; host or cells: HEK293T

[14] = target: T14, TMED9 (Homo sapiens, UniProt Q9BVK6); test: Viral trapping in VLPs, MS analysis; assay type: binding; conditions: all proteins (incl. low confidence identifications)
T14 construct: endogenous in cells; host or cells: HEK293T

[15] = target: T15, SARM1 (Homo sapiens, UniProt Q6SZW1); test: Viral trapping in VLPs, MS analysis; assay type: binding
T15 construct: endogenous in cells; host or cells: HEK293T

[16] = system: EIF1AY; test: Viral trapping in VLPs, MS analysis; assay type: binding, human; conditions: all proteins (incl. low confidence identifications)
[17] = system: LOC512271; test: Viral trapping in VLPs, MS analysis; assay type: binding; conditions: all proteins (incl. low confidence identifications)
[18] = target: T16, UBIAD1 (Homo sapiens, UniProt Q9Y5Z9); test: Viral trapping in VLPs, MS analysis; assay type: binding
T16 construct: endogenous in cells; host or cells: HEK293T
T16 sequence (Q9Y5Z9 whole entry): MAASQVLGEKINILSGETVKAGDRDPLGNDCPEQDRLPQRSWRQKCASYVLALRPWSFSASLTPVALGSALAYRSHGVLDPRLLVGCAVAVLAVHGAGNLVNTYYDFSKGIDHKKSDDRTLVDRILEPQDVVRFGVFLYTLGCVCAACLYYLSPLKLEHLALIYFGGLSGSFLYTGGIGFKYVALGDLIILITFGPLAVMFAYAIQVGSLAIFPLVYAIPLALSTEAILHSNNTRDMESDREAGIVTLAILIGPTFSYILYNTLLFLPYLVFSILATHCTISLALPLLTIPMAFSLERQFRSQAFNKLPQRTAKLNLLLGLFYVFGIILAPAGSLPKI
Method: (§1) To screen for simvastatin binders, cells were transfected with the GAG-eDHFR construct and then treated immediately after transfection with the MTX-PEG6-simvastatin molecule. A total of five biological repeats were performed together with four DMSO control experiments. The list of candidate interactors was obtained after removal of all proteins (including proteins identified with a single peptide) that were found in 19 control samples, the four DMSO samples and the other small molecule samples (e.g., the protein list of the five simvastatin samples was challenged against a total of 29 samples). The control samples are a number of successful Virotrap experiments using unrelated proteins to generate a list of proteins that can be considered background proteins, and that can be subtracted from the protein list obtained for the actual samples.
(§2) For each small molecule condition, two lists of proteins (annotated by their gene name) were reported. The left part of the tables (“All proteins”) contains all unique protein identifications (thus also proteins identified with a single peptide) obtained after removal of the background proteins. The right part of the tables (“Proteins identified with >1 peptide”) contains only the proteins identified with high confidence (at least two modified peptide identifications for each protein). Some recurrent proteins that were identified in multiple experiments with a single peptide are removed from this list (e.g., PYGM identified with low confidence in two repeat experiments).

[19] = target: T17, SQLE (Homo sapiens, UniProt Q14534); test: Viral trapping in VLPs, MS analysis; assay type: binding
T17 construct: endogenous in cells; host or cells: HEK293T
T17 sequence (Q14534 whole entry): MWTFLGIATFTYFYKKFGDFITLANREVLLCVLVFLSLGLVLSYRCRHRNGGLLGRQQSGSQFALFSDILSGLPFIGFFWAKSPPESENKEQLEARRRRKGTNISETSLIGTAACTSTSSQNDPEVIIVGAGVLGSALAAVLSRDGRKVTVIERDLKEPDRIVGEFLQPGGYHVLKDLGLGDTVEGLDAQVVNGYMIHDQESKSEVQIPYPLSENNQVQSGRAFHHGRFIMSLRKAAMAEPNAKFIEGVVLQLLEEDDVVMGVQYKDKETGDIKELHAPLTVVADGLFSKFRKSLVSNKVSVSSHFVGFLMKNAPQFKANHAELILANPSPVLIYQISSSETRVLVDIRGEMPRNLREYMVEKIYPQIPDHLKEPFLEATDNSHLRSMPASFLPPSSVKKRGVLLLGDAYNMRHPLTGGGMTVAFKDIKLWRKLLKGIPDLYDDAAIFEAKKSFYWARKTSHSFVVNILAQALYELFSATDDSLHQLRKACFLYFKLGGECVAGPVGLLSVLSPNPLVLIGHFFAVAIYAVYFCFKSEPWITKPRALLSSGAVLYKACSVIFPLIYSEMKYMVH
Method: as §1, §2

[20] = target: T18, SLC46A1 (Homo sapiens, UniProt Q96NT5); test: Viral trapping in VLPs, MS analysis; assay type: binding; conditions: all proteins (incl. low confidence identifications)
T18 construct: endogenous in cells; host or cells: HEK293T

[21] = target: T19, SBDS (Homo sapiens, UniProt Q9Y3A5); test: Viral trapping in VLPs, MS analysis; assay type: binding; conditions: all proteins (incl. low confidence identifications)
T19 construct: endogenous in cells; host or cells: HEK293T

[22] = target: T20, ATP6V0C (Homo sapiens, UniProt P27449); test: Viral trapping in VLPs, MS analysis; assay type: binding; conditions: all proteins (incl. low confidence identifications)
T20 construct: endogenous in cells; host or cells: HEK293T

[23] = target: T21, FABP1 (Homo sapiens, UniProt P07148); test: Viral trapping in VLPs, MS analysis; assay type: binding; conditions: all proteins (incl. low confidence identifications)
T21 construct: endogenous in cells; host or cells: HEK293T
T21 sequence (P07148 whole entry): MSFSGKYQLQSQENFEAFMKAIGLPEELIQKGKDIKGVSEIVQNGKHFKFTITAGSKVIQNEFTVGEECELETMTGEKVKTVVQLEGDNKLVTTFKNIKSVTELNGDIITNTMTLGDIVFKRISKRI

[24] = target: T22, KRT6B (Homo sapiens, UniProt P04259); test: Viral trapping in VLPs, MS analysis; assay type: binding
T22 construct: endogenous in cells; host or cells: HEK293T
T22 sequence (P04259 whole entry): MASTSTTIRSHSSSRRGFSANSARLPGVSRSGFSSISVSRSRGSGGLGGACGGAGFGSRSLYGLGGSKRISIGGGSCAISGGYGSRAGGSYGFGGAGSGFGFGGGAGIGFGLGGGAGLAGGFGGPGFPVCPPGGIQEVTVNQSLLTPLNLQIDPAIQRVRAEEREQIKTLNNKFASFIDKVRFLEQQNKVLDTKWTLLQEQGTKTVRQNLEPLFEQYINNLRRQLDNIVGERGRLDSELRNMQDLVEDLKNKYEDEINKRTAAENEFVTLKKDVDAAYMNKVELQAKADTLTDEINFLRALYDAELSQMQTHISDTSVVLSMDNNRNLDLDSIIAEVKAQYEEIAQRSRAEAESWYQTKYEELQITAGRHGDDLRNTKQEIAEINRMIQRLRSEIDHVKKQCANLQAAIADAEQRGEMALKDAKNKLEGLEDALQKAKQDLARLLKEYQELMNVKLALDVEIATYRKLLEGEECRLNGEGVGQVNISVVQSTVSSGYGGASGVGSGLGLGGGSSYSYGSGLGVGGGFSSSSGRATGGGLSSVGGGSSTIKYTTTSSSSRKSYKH

[25] = system: LOC524129; test: Viral trapping in VLPs, MS analysis; assay type: binding; conditions: all proteins (incl. low confidence identifications)
[26] = system: PYGM; test: Viral trapping in VLPs, MS analysis; assay type: binding, human; conditions: all proteins (incl. low confidence identifications)
[27] = target: T23, CNPY2 (Homo sapiens, UniProt Q9Y2B0); test: Viral trapping in VLPs, MS analysis; assay type: binding; conditions: all proteins (incl. low confidence identifications)
T23 construct: endogenous in cells; host or cells: HEK293T

[28] = target: T24, SH3GL2 (Homo sapiens, UniProt Q99962); test: Viral trapping in VLPs, MS analysis; assay type: binding; conditions: all proteins (incl. low confidence identifications)
T24 construct: endogenous in cells; host or cells: HEK293T

[29] = target: T25, PDIA4 (Homo sapiens, UniProt P13667); test: Viral trapping in VLPs, MS analysis; assay type: binding
T25 construct: endogenous in cells; host or cells: HEK293T
T25 sequence (P13667 21-645): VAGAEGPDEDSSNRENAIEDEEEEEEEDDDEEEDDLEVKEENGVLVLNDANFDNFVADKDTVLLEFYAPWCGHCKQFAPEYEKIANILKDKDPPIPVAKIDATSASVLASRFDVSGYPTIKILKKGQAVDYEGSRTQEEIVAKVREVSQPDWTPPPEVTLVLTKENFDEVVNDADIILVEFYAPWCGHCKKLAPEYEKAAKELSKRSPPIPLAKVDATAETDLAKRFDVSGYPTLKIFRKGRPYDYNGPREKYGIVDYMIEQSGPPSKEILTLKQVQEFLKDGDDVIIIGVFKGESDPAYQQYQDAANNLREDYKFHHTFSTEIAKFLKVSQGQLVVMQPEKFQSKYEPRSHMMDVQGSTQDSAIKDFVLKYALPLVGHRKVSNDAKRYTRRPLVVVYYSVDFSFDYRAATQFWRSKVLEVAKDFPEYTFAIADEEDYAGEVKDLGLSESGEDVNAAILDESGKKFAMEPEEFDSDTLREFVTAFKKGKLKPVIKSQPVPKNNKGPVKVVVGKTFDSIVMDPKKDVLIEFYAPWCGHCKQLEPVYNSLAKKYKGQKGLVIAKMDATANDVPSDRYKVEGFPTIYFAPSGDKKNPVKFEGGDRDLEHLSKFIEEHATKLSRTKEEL

[30] = target: T26, VAMP4 (Homo sapiens, UniProt O75379); test: Viral trapping in VLPs, MS analysis; assay type: binding; conditions: all proteins (incl. low confidence identifications)
T26 construct: endogenous in cells; host or cells: HEK293T

[31] = target: T27, HMGCR (Homo sapiens, UniProt P04035); test: Viral trapping in VLPs, MS analysis; assay type: binding
T27 construct: endogenous in cells; host or cells: HEK293T
T27 sequence (P04035 whole entry): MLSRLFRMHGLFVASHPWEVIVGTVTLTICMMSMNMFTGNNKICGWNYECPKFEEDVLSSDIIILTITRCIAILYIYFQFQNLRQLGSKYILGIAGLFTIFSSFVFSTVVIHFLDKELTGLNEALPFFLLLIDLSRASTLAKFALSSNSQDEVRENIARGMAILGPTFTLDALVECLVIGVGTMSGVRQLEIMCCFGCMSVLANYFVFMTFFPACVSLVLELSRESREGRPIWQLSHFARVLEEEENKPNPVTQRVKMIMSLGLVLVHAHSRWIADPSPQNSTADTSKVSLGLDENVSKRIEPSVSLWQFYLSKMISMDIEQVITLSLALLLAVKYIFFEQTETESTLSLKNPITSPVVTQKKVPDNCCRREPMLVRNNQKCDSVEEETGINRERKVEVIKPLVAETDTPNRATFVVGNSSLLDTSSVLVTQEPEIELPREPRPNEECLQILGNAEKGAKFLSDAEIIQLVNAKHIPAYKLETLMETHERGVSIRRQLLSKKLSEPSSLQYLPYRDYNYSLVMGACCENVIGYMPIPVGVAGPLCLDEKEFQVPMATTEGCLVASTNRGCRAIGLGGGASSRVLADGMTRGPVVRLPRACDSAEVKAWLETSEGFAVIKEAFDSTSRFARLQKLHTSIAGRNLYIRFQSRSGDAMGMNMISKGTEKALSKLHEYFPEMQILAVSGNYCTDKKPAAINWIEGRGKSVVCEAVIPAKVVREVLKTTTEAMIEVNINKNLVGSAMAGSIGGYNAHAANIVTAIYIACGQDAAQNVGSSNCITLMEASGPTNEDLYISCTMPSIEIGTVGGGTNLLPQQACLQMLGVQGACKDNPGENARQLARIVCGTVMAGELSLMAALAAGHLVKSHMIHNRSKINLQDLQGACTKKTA

[32] = target: T28, KIAA0319L (Homo sapiens, UniProt Q8IZA0); test: Viral trapping in VLPs, MS analysis; assay type: binding
T28 construct: endogenous in cells; host or cells: HEK293T
T28 sequence (Q8IZA0 whole entry): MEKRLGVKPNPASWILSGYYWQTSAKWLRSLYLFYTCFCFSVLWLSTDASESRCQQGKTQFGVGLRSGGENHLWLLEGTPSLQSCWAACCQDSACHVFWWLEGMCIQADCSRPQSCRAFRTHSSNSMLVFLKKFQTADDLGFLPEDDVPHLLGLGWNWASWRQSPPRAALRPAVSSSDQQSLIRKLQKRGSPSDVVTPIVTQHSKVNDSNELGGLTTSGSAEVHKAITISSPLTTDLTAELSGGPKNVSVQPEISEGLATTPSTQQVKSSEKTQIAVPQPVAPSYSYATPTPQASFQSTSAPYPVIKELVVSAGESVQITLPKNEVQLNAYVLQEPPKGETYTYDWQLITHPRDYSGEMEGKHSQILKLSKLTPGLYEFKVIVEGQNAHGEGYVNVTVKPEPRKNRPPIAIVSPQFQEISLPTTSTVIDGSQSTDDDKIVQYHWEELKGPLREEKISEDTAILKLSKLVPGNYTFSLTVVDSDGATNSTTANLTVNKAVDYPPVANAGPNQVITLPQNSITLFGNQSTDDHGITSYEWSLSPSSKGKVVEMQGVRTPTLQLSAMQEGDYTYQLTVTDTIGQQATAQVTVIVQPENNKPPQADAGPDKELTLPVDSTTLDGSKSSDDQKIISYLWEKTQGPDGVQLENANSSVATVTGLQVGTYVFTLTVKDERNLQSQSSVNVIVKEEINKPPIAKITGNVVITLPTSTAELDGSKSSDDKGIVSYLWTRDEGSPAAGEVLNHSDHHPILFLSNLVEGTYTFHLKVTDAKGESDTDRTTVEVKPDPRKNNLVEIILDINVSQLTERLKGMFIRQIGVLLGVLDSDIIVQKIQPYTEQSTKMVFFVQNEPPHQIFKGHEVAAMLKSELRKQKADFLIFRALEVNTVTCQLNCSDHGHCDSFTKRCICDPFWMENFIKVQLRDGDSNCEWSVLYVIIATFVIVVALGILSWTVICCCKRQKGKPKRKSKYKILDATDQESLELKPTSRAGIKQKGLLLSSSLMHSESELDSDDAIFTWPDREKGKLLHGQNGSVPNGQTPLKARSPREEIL

[33] = system: RBP4; test: Viral trapping in VLPs, MS analysis; assay type: binding, human; conditions: all proteins (incl. low confidence identifications)
[34] = system: DDTL; test: Viral trapping in VLPs, MS analysis; assay type: binding, human; conditions: all proteins (incl. low confidence identifications)
[35] = target: T29, VPS37D (Homo sapiens, UniProt Q86XT2); test: Viral trapping in VLPs, MS analysis; assay type: binding; conditions: all proteins (incl. low confidence identifications)
T29 construct: endogenous in cells; host or cells: HEK293T

[36] = target: T30, HSD17B4 (Homo sapiens, UniProt P51659); test: Binary MASPIT assay; assay type: cell-based; conditions: binary MASPIT assay
T30 construct: endogenous in cells; host or cells: HEK293T
T30 sequence (P51659 1-736): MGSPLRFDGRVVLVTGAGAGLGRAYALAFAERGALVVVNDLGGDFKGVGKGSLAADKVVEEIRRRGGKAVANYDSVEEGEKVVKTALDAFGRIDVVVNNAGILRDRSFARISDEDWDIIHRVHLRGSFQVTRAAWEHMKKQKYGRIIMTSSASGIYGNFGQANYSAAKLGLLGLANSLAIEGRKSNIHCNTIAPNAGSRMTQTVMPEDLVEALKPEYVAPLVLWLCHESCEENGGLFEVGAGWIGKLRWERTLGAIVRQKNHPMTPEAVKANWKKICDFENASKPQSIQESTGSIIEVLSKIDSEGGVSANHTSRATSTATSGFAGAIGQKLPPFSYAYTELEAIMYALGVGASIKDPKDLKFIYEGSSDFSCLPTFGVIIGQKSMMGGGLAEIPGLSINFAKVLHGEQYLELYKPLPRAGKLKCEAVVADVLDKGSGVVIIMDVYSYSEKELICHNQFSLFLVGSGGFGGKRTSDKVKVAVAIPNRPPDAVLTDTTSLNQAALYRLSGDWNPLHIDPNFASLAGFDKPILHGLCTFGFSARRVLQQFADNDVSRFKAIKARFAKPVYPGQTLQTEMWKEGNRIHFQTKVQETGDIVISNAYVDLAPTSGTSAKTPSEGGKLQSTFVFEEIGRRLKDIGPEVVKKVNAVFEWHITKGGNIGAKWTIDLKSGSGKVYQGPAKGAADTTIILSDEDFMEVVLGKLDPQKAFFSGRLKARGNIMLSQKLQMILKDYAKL
Method: The binding of HSD17B4 to tamoxifen was further confirmed using the MASPIT technology. The binary MASPIT assay was essentially performed as described before (Risseeuw et al., 2013). Briefly, HEK293T cells were seeded in black tissue-culture treated 96-well plates at 10.000 cells/well in 100 μl culture medium (DMEM supplemented with 10% fetal calf serum), and grown at 37° C., 8% CO2. Twenty-four hours later cells were transfected with a combination of the pCLG-eDHFR plasmid (Risseeuw et al., 2013), the pMG1-HSD17B4 construct and the pXP2d2-rPAP1-luciferase reporter (Caligiuri et al., 2006). The pMG1-HSD17B4 construct was generated by Gateway transfer of the full size HSD17B4 ORF, obtained as an entry clone in the hORFeome collection, into the Gateway compatible pMG1 prey destination vector as described earlier (Lievens et al., 2009). Twenty-four hours after transfection, cells were either left unstimulated or treated with 100 ng/ml leptin, with or without addition of MTX-PEG6-tamoxifen. Another 24 hours later, luciferase activity was assayed using the Luciferase Assay System kit (Promega).

[37] = all proteins (incl. low confidence identifications)
[38] = proteins identified with >1 peptide (high confidence)

CC1C=C2C=CC(C)C(CCC3CC(O)CC(=O)O3)C2C(OC(=O)C(C)(C)Cc2cn(CCOCCOCCOCCOCCOCCNC(=O)CCC(NC(=O)c3ccc(N(C)Cc4cnc5nc(N)nc(N)c5n4)cc3)C(=O)O)nn2)C1 (centres unmarked) [MTX-PEG6-simvastatin]
1 x/5: Recurrence (x/5) [1] | Recurrence (x/5) [2] | Recurrence (x/5) [3] | Recurrence (x/5) [4] | Recurrence (x/5) [5] | Recurrence (x/5) [6] | Recurrence (x/5) [7] | Recurrence (x/5) [8, 37] | Recurrence (x/5) [8, 38] | Recurrence (x/5) [9] | Recurrence (x/5) [10] | Recurrence (x/5) [11] | Recurrence (x/5) [12] | Recurrence (x/5) [13] | Recurrence (x/5) [14] | Recurrence (x/5) [16] | Recurrence (x/5) [17] | Recurrence (x/5) [18, 37] | Recurrence (x/5) [18, 38] | Recurrence (x/5) [20] | Recurrence (x/5) [21] | Recurrence (x/5) [22] | Recurrence (x/5) [23] | Recurrence (x/5) [24, 37] | Recurrence (x/5) [24, 38] | Recurrence (x/5) [25] | Recurrence (x/5) [27] | Recurrence (x/5) [28] | Recurrence (x/5) [29, 37] | Recurrence (x/5) [29, 38] | Recurrence (x/5) [30] | Recurrence (x/5) [32, 37] | Recurrence (x/5) [32, 38] | Recurrence (x/5) [33] | Recurrence (x/5) [34] | Recurrence (x/5) [35]
2 x/5: Recurrence (x/5) [26]
5 x/5: Recurrence (x/5) [31, 37] | Recurrence (x/5) [31, 38]
3 x/5: Recurrence (x/5) [15, 37] | Recurrence (x/5) [15, 38] | Recurrence (x/5) [19, 38]
4 x/5: Recurrence (x/5) [19, 37]

CC/C(=C(\c1ccccc1)c1ccc(OCCN(C)C)cc1)c1ccccc1 [tamoxifen, reference compound]
confirmed: interaction between tamoxifen and HSD17B4 [36]

Source: patent US11231416B2, “Virus-like particle (VLP) based small molecule-protein interaction trap” (VIB VZW, priority 2015, dated 2022)
